Experimental data taken from article PMC6222487 (Molecules : A Journal of Synthetic Chemistry and Natural …, 2018).
Read-outs that look alike come from different tables or passages of the source.

Experiments:
[1] = target: T1, BuChE (from equine serum) (Equus caballus, UniProt P81908); assay: biochemical; conditions: mean ± SEM
T1 construct: purchased Merck & Co; host or cells: equine serum
Procedure: (§1) Photometric 96-well microplates made from polystyrene (Thermo Scientific, Waltham, […]. USA) were used for measurement purposes.
(§2) AChE and BuChE inhibitory activities were measured by the spectrophotometric method of Ellman, with slight modification. Briefly, all in vitro assays were performed in 0.1 M NaH2PO4/Na2HPO4 buffer, pH 7.4, using a THERMO Enzyme-labeled Instrument. The enzyme solutions were prepared to obtain 2.0 units/mL in 2.0 mL aliquots. The assay medium (1 mL) consisted of phosphate buffer (pH 7.4), 10 μL of the enzyme, 30 μL of 0.01 M DTNB, and 30 μL of substrate (ATC or BTC) at a concentration of 0.01 M. The test and reference compounds were first dissolved in DMSO (5‰) and fetal bovine serum (1‰), and then diluted in 0.1 M NaH2PO4/Na2HPO4 buffer (pH 7.4) to provide a final concentration range. The inhibitors were added to the assay solution containing enzyme, buffer, and DTNB with pre-incubation for 20 min at 37 °C, prior to the addition of the substrate. The activity was determined by measuring the increase in absorbance at 410 nm at 1 min intervals at 37 °C. The data were calculated according to the method described by Ellman et al. Each concentration was assayed in triplicate. Blanks containing all of the components except AChE were included in the analyses.

[2] = target: T2, AChE (from electric eel) (Electrophorus electricus, UniProt O42275); assay: biochemical; assay type: biochemical; conditions: for Selectivity Index = IC50 (BChE)/IC50 (AChE): IC50 BuChE/IC50 AChE; for IC50: mean ± SEM, NA = No potent inhibitory activity
T2 construct: purchased Merck & Co
T2 sequence (O42275 24-633): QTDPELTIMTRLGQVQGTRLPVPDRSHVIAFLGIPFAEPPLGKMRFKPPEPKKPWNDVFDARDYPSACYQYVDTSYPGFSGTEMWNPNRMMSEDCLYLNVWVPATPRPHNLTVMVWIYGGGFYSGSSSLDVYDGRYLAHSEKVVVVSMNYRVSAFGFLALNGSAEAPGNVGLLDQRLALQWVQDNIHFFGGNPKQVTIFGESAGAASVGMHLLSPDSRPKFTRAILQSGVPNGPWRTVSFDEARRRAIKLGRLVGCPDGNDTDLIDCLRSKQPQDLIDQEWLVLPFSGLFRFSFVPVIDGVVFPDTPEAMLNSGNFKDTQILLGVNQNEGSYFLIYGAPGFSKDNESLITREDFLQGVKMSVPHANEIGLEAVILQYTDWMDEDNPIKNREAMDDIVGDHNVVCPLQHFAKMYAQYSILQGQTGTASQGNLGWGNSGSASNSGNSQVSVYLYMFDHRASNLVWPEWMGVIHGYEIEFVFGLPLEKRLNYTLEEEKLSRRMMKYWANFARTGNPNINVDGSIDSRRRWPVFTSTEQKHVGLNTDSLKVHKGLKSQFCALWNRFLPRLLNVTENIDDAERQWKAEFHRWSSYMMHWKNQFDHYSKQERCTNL
Procedure: as §1, §2

[3] = tested on: HepG2 cells; assay type: cell-based
Procedure: One of the best documented side-effects of the drug discovery and development of AD is cytotoxicity. To probe whether such a type of target compounds involves cytotoxic effects, we respectively treated HepG2 cells and SH-SY5Y cells with several concentrations of the corresponding compound. Cell viability was determined by a CCK-8 assay. […].
HepG2 cells (human hepatocellular liver carcinoma cell line from American Type Culture Collection, ATCC) were cultured in Eagle’s minimum essential medium (EMEM) supplemented with 10% heat-inactivated fetal bovine serum (FBS), and 100 U/mL of penicillin/streptomycin (Gino Biomedical Technology Co. LTD., Hangzhou, China). Cultures were seeded into flasks containing supplemented medium and maintained at 37 °C in a humidified atmosphere of 5% CO2. For assays, cells (1.0 × 10^5 cells/well) were seeded in a 96-well plate in complete medium, the medium was removed after 24 h, and cells were exposed to the increasing concentrations of compounds 8q or 8r (0, 25, 50, 125, 200, 300, 400, and 500 μM) in DMEM with no serum for a further 24 h. Cell survival was measured through a CCK-8 assay. All compounds were dissolved in pure DMSO.

[4] = tested on: SH-SY5Y cells; assay type: cell-based
Procedure: To probe whether such a type of target compounds involves cytotoxic effects, we respectively treated HepG2 cells and SH-SY5Y cells with several concentrations of the corresponding compound. Cell viability was determined by a CCK-8 assay.
SH-SY5Y cells (human neuroblastoma cell line from American Type Culture Collection, ATCC, Manassas, VA, USA) were seeded into 96-well plates at a density of 4 × 10^4 cells/mL in Dulbecco’s modified Eagle’s medium (DMEM) supplemented with 10% FBS and 100 U/mL of penicillin/streptomycin (Gino Biomedical Technology Co. LTD., Hangzhou, China), and incubated in a humidified atmosphere containing 5% CO2 at 37 °C. […] After this incubation, 10 μL/well of CCK-8 (5 mg/mL) was added and incubated at 37 °C for 4 h. The optical density (OD) of each well was measured using an Epoch Microplate Spectrophotometer (BioTek Instruments, Inc., Winooski, VT, USA) with a test wavelength of 450, 630 nm.

[5] = target: T3, Aβ (1-42) (Homo sapiens, UniProt P05067); assay: biochemical; conditions: self-induced aggregation, thioflavin-T; Aβ 20 μM, 37 °C, 24 h; NA = No potent inhibitory activity
T3 construct: Aβ (1-42) peptide (Sigma-Aldrich); purchased Sigma-Aldrich
T3 sequence (P05067 672-713): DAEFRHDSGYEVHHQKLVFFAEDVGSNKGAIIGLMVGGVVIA
Procedure: A Thioflavin T-based fluorometric assay was performed in order to investigate the self-induced Aβ (1-42) aggregation. Briefly, compounds to be tested were firstly dissolved in DMSO to obtain a 10 mM solution and then diluted in phosphate buffer (pH 7.4) to provide a final concentration range. […] After incubation, thioflavin-T (5 μM in 50 mM glycine-NaOH buffer, pH 8.0) was added into the above 96-well microplate and the samples were diluted to a final volume of 150 μL. […] Each inhibitor was run in triplicate.

T1 sequence (P81908 whole entry): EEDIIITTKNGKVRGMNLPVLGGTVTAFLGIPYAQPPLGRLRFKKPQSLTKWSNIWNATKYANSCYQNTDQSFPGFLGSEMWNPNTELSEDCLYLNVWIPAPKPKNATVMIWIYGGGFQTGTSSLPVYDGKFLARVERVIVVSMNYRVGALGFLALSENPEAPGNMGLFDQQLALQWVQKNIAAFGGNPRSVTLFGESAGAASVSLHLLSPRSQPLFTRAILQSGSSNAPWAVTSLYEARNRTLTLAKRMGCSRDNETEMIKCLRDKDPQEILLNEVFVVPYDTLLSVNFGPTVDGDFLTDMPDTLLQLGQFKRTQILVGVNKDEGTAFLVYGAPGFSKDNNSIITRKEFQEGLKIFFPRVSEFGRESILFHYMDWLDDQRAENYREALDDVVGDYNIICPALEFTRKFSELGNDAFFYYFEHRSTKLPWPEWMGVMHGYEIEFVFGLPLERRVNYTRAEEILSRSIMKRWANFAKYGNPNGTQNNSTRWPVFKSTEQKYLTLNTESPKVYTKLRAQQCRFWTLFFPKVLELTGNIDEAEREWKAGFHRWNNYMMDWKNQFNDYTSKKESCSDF

SMILES	IC50 [1] [mM]	Selectivity Index = IC50 (BChE)/IC50 (AChE) [2]	IC50 [2] [nM]	IC50 [5] [µM]	also measured
COc1cccc(C(=O)OCCCOC(=O)c2nc(C)c(C)nc2C)c1OC [Compound 8a, 3-[(2,3-Dimethoxybenzoyl)oxy]propyl 3,5,6-trimethylpyrazine-2-carboxylate]	3.63 ± 0.07	2.16 × 10^4	167.9 ± 0.39	–	–
Nc1c2c(nc3ccccc13)CCCC2 [Tacrine, reference compound]	–	–	–	–	Cell viability ([3]; 25 µM): 99.78 ± 1.07 ^ns percentage of control; Cell viability ([3]; 50 µM): 95.02 ± 2.30 ^ns percentage of control; Cell viability ([3]; 125 µM): 83.72 ± 0.73 percentage of control; Cell viability ([3]; 200 µM): 81.80 ± 1.86 percentage of control; Cell viability ([3]; 300 µM): 74.32 ± 3.93 percentage of control; Cell viability ([3]; 400 µM): 23.61 ± 0.05 percentage of control; Cell viability ([3]; 500 µM): 19.92 ± 0.05 percentage of control; Cell viability ([4]; 25 µM): 87.89 ± 0.85 ^ns percentage of control; Cell viability ([4]; 50 µM): 88.17 ± 1.55 ^ns percentage of control; Cell viability ([4]; 125 µM): 75.42 ± 0.78 percentage of control; Cell viability ([4]; 200 µM): 48.75 ± 0.43 percentage of control; Cell viability ([4]; 300 µM): 43.39 ± 2.69 percentage of control; Cell viability ([4]; 400 µM): 34.69 ± 2.86 percentage of control
Cc1nc(C)c(C(=O)OCCCOC(=O)c2cccc(Br)c2)nc1C [Compound 8g, 3-[(3-Bromobenzoyl)oxy]propyl 3,5,6-trimethylpyrazine-2-carboxylate]	21.1 ± 0.46	6.23	–	–	–
COc1cc(/C=C/C(=O)OCCCOC(=O)c2nc(C)c(C)nc2C)cc(OC)c1OC [Compound 8p, 3-{[(2E)-3-(3,4,5-Trimethoxyphenyl)prop-2-enoyl]oxy}propyl 3,5,6-tri-methylpyrazine-2-carboxylate]	4.02 ± 0.03	4.30 × 10^4	93.51 ± 0.2	71.28 ± 0.044	–
COc1cccc(OC)c1C(=O)OCCCOC(=O)c1nc(C)c(C)nc1C [Compound 8e, 3-[(2,6-Dimethoxybenzoyl)oxy]propyl 3,5,6-trimethylpyrazine-2-carboxylate]	0.34 ± 0.03	2.36 × 10^3	143.8 ± 0.25	55.86 ± 0.035	–
Cc1nc(C)c(C(=O)OCCCOC(=O)c2cccc(Cl)c2)nc1C [Compound 8f, 3-[(3-Chlorobenzoyl)oxy]propyl 3,5,6-trimethylpyrazine-2-carboxylate]	3.27 ± 0.06	4.95 × 10^5	6.61 ± 0.13	45.88 ± 0.024	–
COc1ccc(C(=O)OCCCOC(=O)c2nc(C)c(C)nc2C)cc1F [Compound 8j, 3-[(3-Fluoro-4-methoxybenzoyl)oxy]propyl 3,5,6-trimethylpyrazine-2-carboxylate]	0.857 ± 0.002	2.97	–	7.12 ± 0.012	–
COc1cc(CC(=O)OCCCOC(=O)c2nc(C)c(C)nc2C)cc(OC)c1OC [Compound 8l, 3-{[(3,4,5-Trimethoxyphenyl)acetyl]oxy}propyl 3,5,6-trimethylpyrazine-2-carboxylate]	3.96 ± 0.26	1.31 × 10^4	303.4 ± 0.26	77.45 ± 0.029	–
Cc1nc(C)c(C(=O)OCCCOC(=O)c2ccc(Br)cc2)nc1C [Compound 8h, 3-[(4-Bromobenzoyl)oxy]propyl 3,5,6-trimethylpyrazine-2-carboxylate]	2.49 ± 0.29	2.62	–	–	–
COc1ccc(CC(=O)OCCCOC(=O)c2nc(C)c(C)nc2C)cc1F [Compound 8n, 3-{[(3-Fluoro-4-methoxyphenyl)acetyl]oxy}propyl 3,5,6-trimethylpyrazine-2-carboxylate]	3.06 ± 0.34	20.67	–	–	–
COc1ccc(C(=O)OCCCOC(=O)c2nc(C)c(C)nc2C)c(OC)c1 [Compound 8c, 3-[(2,4-Dimethoxybenzoyl)oxy]propyl 3,5,6-trimethylpyrazine-2-carboxylate]	2.7 ± 0.03	–	387.9 ± 0.45	22.54 ± 0.014	–
Cc1nc(C)c(C(=O)OCCCOC(=O)c2ccc(F)cc2)nc1C [Compound 8i, 3-[(4-Fluorobenzoyl)oxy]propyl 3,5,6-trimethylpyrazine-2-carboxylate]	–	1.14 × 10^2	–	211.18 ± 0.039	–
COc1ccc(/C=C/C(=O)OCCCOC(=O)c2nc(C)c(C)nc2C)cc1OC [Compound 8o, 3-{[(2E)-3-(3,4-Dimethoxyphenyl)prop-2-enoyl]oxy}propyl 3,5,6-trimethyl-pyrazine-2-carboxylate]	3.97 ± 0.1	1.23 × 10^6	3.24 ± 0.1	45.29 ± 0.033	–
COc1cc(OC)cc(C(=O)OCCCOC(=O)c2nc(C)c(C)nc2C)c1 [Compound 8b, 3-[(3,5-Dimethoxybenzoyl)oxy]propyl 3,5,6-trimethylpyrazine-2-carboxylate]	5.64 ± 0.38	1.27 × 10^6	4.43 ± 0.35	3.66 ± 0.104	–
COc1ccc(C(=O)OCCCOC(=O)c2nc(C)c(C)nc2C)cc1OC [Compound 8d, 3-[(3,4-Dimethoxybenzoyl)oxy]propyl 3,5,6-trimethylpyrazine-2-carboxylate]	4.29 ± 0.12	1.02 × 10^6	4.12 ± 0.24	51.81 ± 0.047	–
Cc1nc(C)c(C(=O)OCCCOC(=O)c2cccc(F)c2)nc1C [Compound 8k, 3-[(3-Fluorobenzoyl)oxy]propyl 3,5,6-trimethylpyrazine-2-carboxylate]	5.49 ± 0.15	9.49	–	5.1 ± 0.04	–
Cc1nc(C)c(C(=O)OCCCOC(=O)Cc2ccc(Br)cc2)nc1C [Compound 8m, 3-{[(4-Bromophenyl)acetyl]oxy}propyl 3,5,6-trimethylpyrazine-2-carboxylate]	–	52.17	–	200.84 ± 0.016	–
